IC50 data for 27 compounds are collected here from patent US11590139B2, “Substituted aminopurine compounds, compositions thereof, and methods of treatment therewith” (Signal Pharmaceuticals, LLC, priority 2014, dated 2023).

The first assay relates to Lox-IMVI melanoma cell line. Put plainly: Lox-IMVI anti-proliferative assay (growth inhibition, Cell Titer-Glo). The assay is classed as cell-based, human. To be noted: Homo sapiens; IC50 activity level in the cell-based Lox-IMVI anti-proliferative assay; read-out: Activity. The gist of the method: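 Viability read by ATP luminescence (Cell Titer-Glo) at t0 and after 72 h at 37 °C, 5% CO2, with normalisation to DMSO-treated cells. Compound tested at 0.5 nM–10 μM in 3-fold, 10-point series (0.2% DMSO final) on Lox-IMVI in RPMI+10% FBS; IC50 by 4-parameter sigmoidal fit.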
Consider `NC(=O)[C@H]1CC[C@@H](n2c(Nc3ccc(Cl)c(F)c3F)nc3cnc(N[C@H]4C[C@H](O)C4)nc32)CC1` [Example 285, (1s,4s)-4-(8-(4-chloro-2,3-difluorophenylamino)-2-((1R,3r)-3-hydroxycyclobutylamino)-9H-purin-9-yl)cyclohexanecarboxamide], for which the IC50 is above 1 µM.

As for `NC(=O)[C@H]1CC[C@@H](n2c(Nc3c(F)cc(F)cc3Cl)nc3cnc(N[C@@H]4CCC[C@H]4O)nc32)CC1` [Example 252, (1S,4s)-4-(8-(2-chloro-4,6-difluorophenylamino)-2-((1R,2R)-2-hydroxycyclopentylamino)-9H-purin-9-yl)cyclohexanecarboxamide], the IC50 is above 1 µM.

On to `NC(=O)[C@H]1CC[C@@H](n2c(Nc3c(F)cc(Cl)cc3Cl)nc3cnc(NC4CCOCC4)nc32)CC1` [Example 40], for which the IC50 is below 0.25 µM.

As for `NC(=O)[C@H]1CC[C@@H](n2c(Nc3c(F)cc(F)cc3F)nc3cnc(N[C@@H]4CCOC[C@H]4F)nc32)CC1` [Example 276, (1S,4s)-4-(2-((3S,4R)-3-fluorotetrahydro-2H-pyran-4-ylamino)-8-(2,4,6-trifluorophenylamino)-9H-purin-9-yl)cyclohexanecarboxamide], the IC50 is below 0.25 µM.

Turning to `NC(=O)[C@H]1CC[C@@H](n2c(Nc3c(F)cccc3F)nc3cnc(NC4CC5(COC5)C4)nc32)CC1` [Example 173, (1s,4s)-4-(2-(2-oxaspiro[3.3]heptan-6-ylamino)-8-(2,6-difluorophenylamino)-9H-purin-9-yl)cyclohexanecarboxamide], the IC50 was above 1 µM.

Regarding `C[C@@H](CO)Nc1ncc2nc(Nc3c(F)cc(C#N)cc3Cl)n([C@H]3CC[C@@H](C(N)=O)CC3)c2n1` [Example 395, (1R,4s)-4-(8-(2-chloro-4-cyano-6-fluorophenylamino)-2-((S)-1-hydroxypropan-2-ylamino)-9H-purin-9-yl)cyclohexanecarboxamide], the IC50 is above 1 µM.

Consider `CC(C)(C)OC(=O)N1CC[C@H](Nc2ncc3nc(Nc4c(F)cc(F)cc4F)n([C@H]4CC[C@@H](C(N)=O)CC4)c3n2)[C@H](F)C1` [Example 127, (3R,4S)-tert-butyl 4-(9-((1s,4R)-4-carbamoylcyclohexyl)-8-(2,4,6-trifluorophenylamino)-9H-purin-2-ylamino)-3-fluoropiperidine-1-carboxylate], for which the IC50 was above 1 µM.

Turning to `NC(=O)[C@H]1CC[C@@H](n2c(Nc3cc(F)c(Cl)cc3F)nc3cnc(N[C@@H]4CCC[C@H](O)C4)nc32)CC1` [Example 363, (1S,4s)-4-(8-(4-chloro-2,5-difluorophenylamino)-2-((1R,3S)-3-hydroxycyclohexylamino)-9H-purin-9-yl)cyclohexanecarboxamide], the IC50 was above 1 µM.

Turning to `NC(=O)[C@H]1CC[C@@H](n2c(Nc3c(F)cc(F)cc3F)nc3cnc(NC4COC4)nc32)CC1` [Example 55, (1s,4s)-4-(2-(oxetan-3-ylamino)-8-(2,4,6-trifluorophenylamino)-9H-purin-9-yl)cyclohexanecarboxamide], the IC50 was above 1 µM.

`NC(=O)[C@H]1CC[C@@H](n2c(Nc3ccc(F)c(F)c3F)nc3cnc(N[C@@H]4CCC[C@H](O)C4)nc32)CC1` [Example 364, (1S,4s)-4-(2-((1R,3S)-3-hydroxycyclohexylamino)-8-(2,3,4-trifluorophenylamino)-9H-purin-9-yl)cyclohexanecarboxamide]: the IC50 was above 1 µM.

For `NC(=O)[C@H]1CC[C@@H](n2c(Nc3c(Cl)cc(F)cc3Cl)nc3cnc(N[C@@H]4CC[C@@H](O)C4)nc32)CC1` [Example 214, (1S,4s)-4-(8-(2,6-dichloro-4-fluorophenylamino)-2-((1R,3R)-3-hydroxycyclopentylamino)-9H-purin-9-yl)cyclohexanecarboxamide], the IC50 was above 1 µM.

`NC(=O)[C@H]1CC[C@@H](n2c(Nc3c(F)cc(Cl)cc3Cl)nc3cnc(N[C@H]4CCOC4)nc32)CC1` [Example 244, (1R,4s)-4-(8-(2,4-dichloro-6-fluorophenylamino)-2-((S)-tetrahydrofuran-3-ylamino)-9H-purin-9-yl)cyclohexanecarboxamide]: the IC50 lay in the range of 0.5 to 1 µM.

The assay is the same for the next values; noted with them: Homo sapiens; Lox-IMVI anti-proliferative assay, IC50 activity level; read-out: Activity.
`CC[C@@H](CO)Nc1ncc2nc(Nc3c(Cl)cc(C#N)cc3Cl)n([C@H]3CC[C@@H](C(N)=O)CC3)c2n1` [Example 432, (1R,4s)-4-(8-(2,6-dichloro-4-cyanophenylamino)-2-((S)-1-hydroxybutan-2-ylamino)-9H-purin-9-yl)cyclohexanecarboxamide]: the IC50 was 0.5 to 1 µM.

In the case of `C[C@]1(C(N)=O)CC[C@@H](n2c(Nc3c(Cl)cc(C(F)(F)F)cc3Cl)nc3cnc(N[C@@H]4CCC[C@H](O)C4)nc32)CC1` [Example 577, (1S,4s)-4-(8-(2,6-dichloro-4-(trifluoromethyl)phenylamino)-2-((1R,3S)-3-hydroxycyclohexylamino)-9H-purin-9-yl)-1-methylcyclohexanecarboxamide], the IC50 was above 1 µM.

As to `NC(=O)[C@H]1CC[C@@H](n2c(Nc3c(F)cc(F)cc3Cl)nc3cnc(N[C@@H]4CCCC[C@H]4O)nc32)CC1` [Example 466, (1S,4s)-4-(8-(2-chloro-4,6-difluorophenylamino)-2-((1R,2R)-2-hydroxycyclohexylamino)-9H-purin-9-yl)cyclohexanecarboxamide], the IC50 was above 1 µM.

With `N#Cc1cc(Cl)c(Nc2nc3cnc(NC4CCCOCC4)nc3n2[C@H]2CC[C@@H](C(N)=O)CC2)c(Cl)c1` (stereo partly drawn) [Example 555, (1s,4s)-4-(8-(2,6-dichloro-4-cyanophenylamino)-2-(oxepan-4-ylamino)-9H-purin-9-yl)cyclohexanecarboxamide], the IC50 was below 0.25 µM.

As to `NC(=O)[C@H]1CC[C@@H](n2c(Nc3c(Cl)cc(C(F)(F)F)cc3Cl)nc3cnc(N[C@@H]4CCOC4)nc32)CC1` [Example 523, (1S,4s)-4-(8-(2,6-dichloro-4-(trifluoromethyl)phenylamino)-2-((R)-tetrahydrofuran-3-ylamino)-9H-purin-9-yl)cyclohexanecarboxamide], the IC50 is above 1 µM.

For the compound `NC(=O)[C@H]1CC[C@@H](n2c(Nc3c(F)cc(Cl)cc3F)nc3cnc(NC4CCCOCC4)nc32)CC1` (stereo partly drawn) [Example 540, (1s,4s)-4-(8-(4-chloro-2,6-difluorophenylamino)-2-(oxepan-4-ylamino)-9H-purin-9-yl)cyclohexanecarboxamide], the IC50 was in the range of 0.25 to 0.5 µM.

For `COC(=O)N1CCCC(Nc2ncc3nc(Nc4c(F)cccc4F)n([C@H]4CC[C@@H](C(N)=O)CC4)c3n2)C1` (stereo partly drawn) [Example 404, (R)-methyl 3-(9-((1s,4S)-4-carbamoylcyclohexyl)-8-(2,6-difluorophenylamino)-9H-purin-2-ylamino)piperidine-1-carboxylate], the IC50 was above 1 µM.

Still in this assay, the particulars now being: Homo sapiens; Lox-IMVI melanoma cell line, anti-proliferative assay; read-out: Activity (IC50 activity level).
For the compound `C[C@]1(C(N)=O)CC[C@@H](n2c(Nc3c(F)cc(Cl)cc3Cl)nc3cnc(N[C@H]4CCC[C@@H](O)C4)nc32)CC1` [Example 628, (1R,4s)-4-(8-(2,4-dichloro-6-fluorophenylamino)-2-((1S,3R)-3-hydroxycyclohexylamino)-9H-purin-9-yl)-1-methylcyclohexanecarboxamide], the IC50 is below 0.25 µM.

For the compound `C[C@]1(C(N)=O)CC[C@@H](n2c(Nc3c(F)cc(C#N)cc3Cl)nc3cnc(N[C@H]4CC[C@H](O)C4)nc32)CC1` [Example 649, (1R,4s)-4-(8-(2-chloro-4-cyano-6-fluorophenylamino)-2-((1S,3S)-3-hydroxycyclopentylamino)-9H-purin-9-yl)-1-methylcyclohexanecarboxamide], the IC50 was 0.25 to 0.5 µM.

With `C[C@]1(C(N)=O)CC[C@@H](n2c(Nc3c(F)cc(F)cc3Cl)nc3cnc(N[C@H]4CCC[C@H](O)C4)nc32)CC1` [Example 610, (1R,4s)-4-(8-(2-chloro-4,6-difluorophenylamino)-2-((1S,3S)-3-hydroxycyclohexylamino)-9H-purin-9-yl)-1-methylcyclohexanecarboxamide], the IC50 is 0.25 to 0.5 µM.

`N#Cc1cc(F)c(Nc2nc3cnc(N[C@@H]4CCC(F)(F)C4)nc3n2[C@H]2CC[C@@H](C(N)=O)CC2)c(F)c1` [Example 697, (1S,4s)-4-(8-(4-cyano-2,6-difluorophenylamino)-2-((R)-3,3-difluorocyclopentylamino)-9H-purin-9-yl)cyclohexanecarboxamide]: the IC50 fell in the range of 0.25 to 0.5 µM.

`NC(=O)[C@H]1CC[C@@H](n2c(Nc3c(F)cc(Cl)cc3Cl)nc3cnc(N[C@@H]4CCCN(c5ccccc5)C4)nc32)CC1` [Example 748, (1S,4s)-4-(8-(2,4-dichloro-6-fluorophenylamino)-2-((R)-1-phenylpiperidin-3-ylamino)-9H-purin-9-yl)cyclohexanecarboxamide]: the IC50 was above 1 µM.

On to `N#Cc1cc(Cl)c(Nc2nc3cnc(NC[C@@H]4CCCC[C@@H]4O)nc3n2[C@H]2CC[C@@H](C(N)=O)CC2)c(Cl)c1` [Example 659, (1R,4s)-4-(8-(2,6-dichloro-4-cyanophenylamino)-2-(((1S,2S)-2-hydroxycyclohexyl)methylamino)-9H-purin-9-yl)cyclohexanecarboxamide], for which the IC50 is above 1 µM.

Consider `NC(=O)[C@H]1CC[C@@H](n2c(Nc3c(F)cc(F)cc3Cl)nc3cnc(NC[C@@H]4CCCC[C@@H]4O)nc32)CC1` [Example 653, (1R,4s)-4-(8-(2-chloro-4,6-difluorophenylamino)-2-(((1S,2S)-2-hydroxycyclohexyl)methylamino)-9H-purin-9-yl)cyclohexanecarboxamide], for which the IC50 is above 1 µM.

The same assay, now with this note: Lox-IMVI melanoma cell line, anti-proliferative assay; read-out: Activity (IC50 activity level).
In the case of “(R)-isopropyl 3-(9-((1s,4S)-4- carbamoylcyclohexyl)-8-(2-chloro-4- cyano-6-fluorophenylamino)-9H-purin- 2-ylamino)piperidine-1-carboxylate [Example 776]”, the IC50 is 0.5 to 1 µM.
